Tests used:
P-selectin [1] = conditions: Skinner et al.; cited from earlier work
P-selectin [2] = target: T1, P-selectin (Homo sapiens, UniProt P16109); experiment: P-Selectin Adhesion Receptor Binding: cell-free ELISA, inhibition of P-selectin binding to immobilized sulfatides; conditions: immobilized sulfatide, pH 8.0
T1 construct: consists of the human lectin domain, the EGF domain, and two complement repeats of the human selectins; made in house
Excerpt: 1. P-Selectin Adhesion Receptor Binding
P-selectin (GMP140, granule membrane protein-140, PADGEM, or CD62) is a calcium-dependent transmembrane protein found in alpha granules of endothelial cells and platelets. It is an inducible selectin produced on activated endothelium and platelets which recognize alpha(2-3)sialylated and alpha(1-3)fucosylated lactosaminoglycans which include the sequence, Lewis x (Zhou et al., J. Cell. Biol., (1991) 115 (2): 557-564) and sulfatides (3-sulfated galactosyl ceramides, Aruffo, et al., Cell (1991) 67: 35-44). P-selectin may be responsible for the initial adhesion events between endothelium and neutrophils as evidenced by leukocyte rolling induced by P-selectin in flow cells (Lawrence, M., and T. Springer, Cell (1991) 65: 859-873).
Based on the availability of soluble forms of P-selectin prepared as described by Aruffo, A., et al., Cell, 67, 35-44 (1991), a binding ELISA based assay modified from Foxall, et al., J., Cell Biol., 117, 895-902 (1992) was developed to measure inhibitors of P-selectin binding to immobilized sulfatides. Such inhibitors were tested in the assay described below.
0.1 ml of sulfatide (SIGMA) or lysosulfatide (SIGMA) each at 1 μg/ml in MeOH were added to the wells of a 96-well ELISA plate (ProBind, Falcon) and allowed to dry overnight at room temperature. The next day the antigen coated plates were blocked for 1.5 hours at room temperature with 5% BSA (ICN) in buffer containing 20mM Hepes and 0.15 M NaCl, pH 8.0. Wild type P-selectin and mutants thereof were first mixed with HRP-conjugated goat anti-human IgG (Fisher Scientific), serially diluted and then incubated for 30 minutes at 37° C. in buffer containing 20 mM Hepes, 0.15 M NaCl, 1% BSA and 0.8 mM CaCl2, pH 8.0 prior to addition to the BSA blocked plates. Following the 30 minute preincubation, the fusion protein-HRP conjugate immunocomplexes were incubated on the blocked antigen coated plates for 45 minutes at 37° C. in the presence or absence of the test compounds and then washed to remove any unbound proteins. Bound complexes were detected by addition of substrate buffer (95 mM NaOAc.3H2 O, 5 mM citric acid monohydrate, 1.4 mM urea/H2O2) containing 3, 3', 5, 5' Tetramethylbenzidine (SIGMA). Reactions were stopped by the addition of 3N sulfuric acid and the absorbance read on an ELISA reader at dual wavelengths 450 and 630 nm. The efficacy of these compounds was compared to that of sulfatide (positive control) or to lysosulfatide (negative control). The data is obtained as percent inhibition of specific binding [formula] and a plot of dose vs. percent inhibition of Rg binding is generated in which IC50 (μM) is calculated and reported as cell free data in Table 1.

[3] = test system: Reverse Passive Arthus Reaction in Rats; experiment: Reverse Passive Arthus Reaction in Rats, vascular permeability (VP); assay type: in vivo; conditions: rat, IV, % inhibition at 3 mg single dose, 4 hours
Excerpt: (§1) 3. Reverse Passive Arthus Reaction in Rats
(§2) The reverse passive Arthus reaction in rats is a modification of the method by Mulligan et al., as described in J. Clin. Invest., (1991 ) 88:1396-1406. This is an experimental model in which the interaction of antigen-antibody complexes and complement leads to a severe vasculitis that is associated with edema, induration, erythema and hemorrhage. The interaction between the antigen-antibody complexes and complement leads to a localized influx of neutrophils. These neutrophils release a variety of mediators that are associated with tissue damage and vascular permeability. The localized inflammatory reaction is measured using different techniques i.e., vascular permeability and neutrophil influx which is evaluated both biochemically and microscopically.
(§3) Male Sprague Dawley specific pathogen-free rats with jugular vein cannulae (280-320 g, Hill Top Labs, Pa.) are used in these studies. Animals are acclimated for at least 1 day and individually housed in stainless steel cages. The dorsal region of the rats is closely clipped 2 days prior to the experiments and divided into 4 sites on each side of the midline. Prior to all injections the rats are sedated with 0.4 ml per 300 gm rat of ketamine/rompun [1000 mg (10 ml) of ketamine HCL is mixed with 40 mg (2.0 ml) Rompun] administered IP and or inhalation anesthesia with metafane (methoxyflurane).
(§4) Bovin Serum Albumin (BSA) and rabbit polyclonal IgG rich in anti-BSA are purchased from Sigma Chemical Co. (St. Louis, Mo.). Radiolabelled ^125 I-BSA (spAct 1-5 μCi/μg) is purchased from Dupont NEN (Boston, Mass.).
(§5) Each rat is administered intradermal (ID) injection of (0.4 mg, 0.6 mg and 0.8 mg) anti-BSA in a volume of 100 μl per injection in normal saline. The ID injections are randomized near the mid dorsal region on both sides of the back bone. Immediately after the ID injections of the anti-BSA, the rats are administered intravenous (IV) injections of BSA (10 mg in 1.0 ml) in normal saline containing ^125 I labeled BSA (1 μCi/ml BSA or 5.0 μCi/kg body wt) for quantification of dermal vascular injury. Anti-inflammatory agents such as inhibitors of adhesion molecules of the present invention are administered IV at a single dose of 3 mg immediately after BSA. Four (4) hours after the IV injection of BSA, the rats are anesthetized with metafane and 2 to 3 ml of blood is withdrawn via the cannula into an anticoagulant containing (EDTA or Heparin) tube and plasma separated and saved for neutrophil and albumin quantitation. The rats are killed and the skin surrounding the injection site (15 mm diameter) is punched out and weighed. The skin samples and a fixed volume of plasma (0.1 to 1.0 ml) is analyzed in a gamma-counter for ^125 I content. Skin samples from the contralateral side are processed and analyzed for myeloperoxidase activity (MPO) as a measure of neutrophil accumulation. As needed, samples are also processed for histological evaluation of the reacted sites.
Vascular Permeability (VP)
The calculation of the plasma protein exudation into skin is made by determining the radioactivity in the tissue and relating this to the level of radioactive albumin in the blood at the time of sacrifice. […] [formula]
Percent inhibition of the test compound at 3 mg was determined as follows: [formula] Myeloperoxidase (MPO)

[4] = test system: Reverse Passive Arthus Reaction in Rats; experiment: Reverse Passive Arthus Reaction in Rats, myeloperoxidase (MPO); assay type: in vivo; conditions: rat, IV, % inhibition at 3 mg single dose, 4 hours
Excerpt: as §1, §2, §3, §4, §5
MPO is located in the azurephil granules of polymorphonuclear leukocytes (PMN). Because of its abundance in these cells (5% dry weight), this enzyme is used as a marker for tissue neutrophil content. For tissue MPO content, the method of Bradley, et al., was used as described in J. Invest. […] Change in absorbance at 450 nm was measured at room temperature using a Vmax kinetic plate reader (Molecular Devices, Pale Alto, Calif., USA). Percent inhibition of the test compound at 3 mg dose was determined as follows: [formula] […]

P-selectin [5] = conditions: Larsen et al.; Erbe et al.; Aruffo et al.; cited from earlier work
P-selectin [6] = target: T1, P-selectin; experiment: HL-60 Cell Binding to P-selectin Rg; assay type: cell-based; conditions: HL-60 cells binding to P-selectin Rg coated wells
Procedure: 2. HL-60 Cell Binding to P- and E-Selectin RG
Receptor globulin (Rg) Construction
The chimeric P-and E-selectin receptor globulin (Rg) consists of the human lectin domain, the EGF domain, and two complement repeats of the human selectins fused to the hinge, CH1 and CH2 domains of human IgG1. These proteins were prepared as described by Aruffo, et al., Cell (1991) 67: 35-44; Walz, et al., Science (1990) 250, 1132-1135.
Cell binding assay for Rg
The HL-60 cell line, obtained from the American Type Culture Collection, ATCC No. CCL240, was employed to investigate P-selectin Rg binding. Assays were done in 96-well tissue culture dishes. The wells were first coated with 0.5 ug goat anti-human Fc antiserum overnight, and nonspecific binding sites were blocked by incubation of the wells with 1% nonfat dry milk in phosphate buffered saline (PBS containing 0.9 mM CaCl2 and 0.8 mM MgSO4) for 30 minutes. The Rg was then bound to the anti Fc-coated wells by incubating 50 ng in 50 ul of PBS for two hours. Cells, washed twice and resuspended in PBS to remove traces of medium components, were labeled with 10 uM calcein acetoxy methyl ester for 30 minutes at 3×10^7 cells per ml at room temperature. Serum-containing medium (RPMI with 20% fetal calf serum) was added, and the cells washed, followed by resuspension in PBS and a further spin. The labeled cells, resuspended in PBS, were added to twice washed Rg-containing wells at 200,000 per well. Following a 30 minute incubation with slow shaking, the wells were aspirated and washed three times with PBS to remove unbound cells. To certain wells were added known numbers of cells for determination of a standard curve of fluorescent units per cell. The fluorescence on the plate was quantitated using a fluorescent plate reader. Following subtraction of a blank representing the binding of cells to non-Rg containing wells (<5000 cells), the specific binding to P- or E- selectin was determined.
Inhibitors of cell binding
Test compounds were prepared by dissolution to a final concentration of 20 mg/ml in dimethyl sulfoxide (DMSO), diluted in PBS to 2 mg/ml, and briefly sonicated prior to use. The Rg coated wells were preincubated at room temperature for 15 minutes with the inhibitor, and 200,000 cells were added to yield the final indicated inhibitor concentration in 160 ul of PBS. The data is obtained as percent inhibition of specific binding: [formula] and a plot of dose vs. percent inhibition of Rg binding is generated in which IC50 (μM) is calculated and reported in Table 1.

T1 sequence (P16109 with tags, fused parts or gaps limits assumed): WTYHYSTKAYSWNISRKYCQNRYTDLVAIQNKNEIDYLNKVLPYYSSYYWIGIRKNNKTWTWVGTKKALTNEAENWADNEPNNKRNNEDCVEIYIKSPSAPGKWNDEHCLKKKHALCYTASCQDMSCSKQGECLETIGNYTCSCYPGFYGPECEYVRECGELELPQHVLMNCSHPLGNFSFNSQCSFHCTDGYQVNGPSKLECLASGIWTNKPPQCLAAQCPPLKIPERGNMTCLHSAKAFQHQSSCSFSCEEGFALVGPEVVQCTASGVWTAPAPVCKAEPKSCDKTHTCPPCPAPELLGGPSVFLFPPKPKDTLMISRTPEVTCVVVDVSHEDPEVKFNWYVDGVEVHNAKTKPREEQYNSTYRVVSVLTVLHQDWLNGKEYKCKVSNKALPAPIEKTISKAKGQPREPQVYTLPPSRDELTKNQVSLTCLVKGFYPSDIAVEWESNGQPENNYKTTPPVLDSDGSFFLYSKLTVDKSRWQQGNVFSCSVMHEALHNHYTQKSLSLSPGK

Row | IC50 (P-selectin [2]) [µM] | Compound | inhibition of P-selectin mediated adhesion (in words) (P-selectin [1]) | RPA VP % Inhib. [3] [%] | RPA MPO % Inhib. [4] [%] | also measured
1 | – | fucoidan | inhibit P-selectin mediated adhesion | – | – | –
2 | – | dextran sulfate | inhibit P-selectin mediated adhesion | – | – | –
3 | 0.1 | CCCCCCCCCCCCC/C=C/[C@@H](OC(=O)c1ccccc1)[C@H](CO[C@@H]1O[C@H](COS(=O)(=O)O)[C@H](OS(=O)(=O)O)[C@H](OC(=O)c2ccccc2)[C@H]1OC(=O)c1ccccc1)NC(=O)CCCCCCCCCCCCCCC [Example 1, (2S,3R,4E)-3-Benzoyloxy-2-hexadecanoylamino-1-[2,3-di-O-benzoyl-4,6-di-O-(sodiumoxysulfonyl)-β-D-galactopyranosyloxy]-4-octadecene] | – | 42 | 24 | –
4 | – | CCCCCCCCCCCCC/C=C/[C@@H](OC(=O)c1ccccc1)[C@H](CO[C@@H]1O[C@@H]2COC(c3ccccc3)O[C@@H]2[C@H](OS(=O)(=O)O)[C@H]1OS(=O)(=O)O)NC(=O)CCCCCCCCCCCCCCC (stereo partly drawn) [Example 10, (2S,3R,4E)-3-Benzoyloxy-2-hexadecanoylamino-1-[2,3-di-O-(sodiumoxysulfonyl)-4,6-O-benzylidene-β-D-galactopyranosyloxy)-4-octadecene] | – | 0 | 56 | –
5 | 2.7 | CCCCCC/C=C/[C@@H](OC(=O)c1ccccc1)[C@H](CO[C@@H]1O[C@H](COS(=O)(=O)O)[C@H](O)[C@H](O)[C@H]1OS(=O)(=O)O)NC(=O)CCCCCCCCCCCCCCC [Example 25, (2S,3R,4E)-3-Benzoyloxy-2-hexadecanoylamino-1-[2,6-di-O-(sodiumoxysulfonyl)-β-D-galactopyranosyloxy]-4-undecene] | – | – | – | –
6 | – | sialyl-Le^x | – | – | – | P-selectin binding (in words) (P-selectin [5]): has been shown to bind
7 | 0.6 to 4 | CCCCCCCCCCCCCCCCCCCCCCCC(=O)N[C@@H](CO[C@@H]1O[C@H](COS(=O)(=O)O)[C@H](OS(=O)(=O)O)[C@H](OC(=O)c2ccccc2)[C@H]1OC(=O)c1ccccc1)[C@@H](CCCCCCCCCCCCCCC)OC(=O)c1ccccc1 [Example 19, (2S,3R)-3-Benzoyloxy-1-[2,3-di-O-benzoyl-4,6-di-O-(sodiumoxysulfonyl)-β-D-galactopyranosyl-oxy]-2-tetracosanoylaminooctadecane] | – | – | – | IC50 (P-selectin [6]): 45 µM
8 | – | heparin | inhibit P-selectin mediated adhesion | – | – | –
9 | 0.2 | CCCCCCCCCCCCC/C=C/[C@@H](OC(=O)c1ccccc1)[C@H](CO[C@@H]1O[C@H](COS(=O)(=O)O)[C@@H](OS(=O)(=O)O)[C@H](OC(=O)c2ccccc2)[C@H]1OC(=O)c1ccccc1)NC(=O)CCCCCCCCCCCCCCC [Example 3, (2S,3R,4E)-2-Hexadecanoylamino-3-benzoyloxy-1-(2,3-di-O-benzoyl-4,6-di-O-(sodiumoxysulfonyl)-β-D-glucopyranosyloxy)-4-octadecene] | – | 34 | 14 | –
10 | 1.3 | CCCCCCCCCCCCC/C=C/[C@@H](OC(=O)c1ccccc1)[C@H](CO[C@@H]1O[C@H](COS(=O)(=O)O)[C@H](OC(C)=O)[C@H](OS(=O)(=O)O)[C@H]1OC(=O)c1ccccc1)NC(=O)CCCCCCCCCCCCCCC [Example 8, (2S,3R,4E)-3-Benzoyloxy-2-hexadecanoylamino-1-[2-O-benzoyl-4-O-acetyl-3,6-di-O-(sodiumoxysulfonyl)-β-D-galactopyranosyloxy]-4-octadecene] | – | – | – | IC50 (P-selectin [6]): 15 µM

Reference: patent publication US5565433A, “Sulfated β-glycolipid derivatives as cell adhesion inhibitors” (Bristol-Myers Squibb Company, priority 1996, dated 1996)
